Data taken from patent US5958966A, “Treatment of aberrant cellular states with biomodulators” (University of New Mexico, priority 1995, dated 1999).
Entries after “also recorded” stand apart in the source; their conditions may differ.

Tests used:
B16 melanoma cells [1] = test: effect of swainsonine on B16 melanoma solid tumor growth; assay type: in vivo, mouse; conditions: for inhibition of B16 growth: 1.0, 0.01 and 0.001 μg Sw (p<0.5)
Method: The B16 melanoma cells were purchased from American Type Culture Collection (ATCC). They were maintained in complete A-MEM (SIGMA) (with 10% fetal calf serum (FCS) (Sigma), 100 U/ml penicillin (Sigma), 100 μg/ml streptomycin (Sigma) and 2 mM utamine (Sigma)) in Corning 75 cm^2 straight necked flasks (T75) and grown with 5.5% CO2 in air with 95% humidity in a New Brunswick Scientific water jacketed incubator. […] They were harvested using 1× Trypsin-EDTA (Sigma), centrifuged at 100×g with a Beckman TJ6 centrifuge, counted using a hemocytometer and stained with trypan blue to determine viability. The cells used for injection into the mice were washed three times in phosphate buffered saline (PBS), counted and resuspended in PBS at a final concentration of 6×10^6 cells per ml.
The swainsonine, purchased from Boehringer Mannheim, was initially suspended in PBS at 100 μg/ml. Subsequent dilutions utilized in the following experiments were made in PBS.
Fifteen female C57B1/6 mice (6 weeks old, from Harlan Sprague Dawley Laboratories) were treated 3 times per week on a Monday-Wednesday-Friday (MWF) schedule for three weeks prior to the injection of the 6×10^5 B16 melanoma cells. The treatment consisted of 0.1 ml (total volume) intraperitoneal injections of swainsonine in the mornings before 9:00 am. The treatment groups were as follows:
The MWF treatment with the swainsonine continued after the tumor cell injection until the termination of the study. Once the tumor was palpable, electronic calipers were used to measure the length (l), width (w) and depth (d) of the tumor. The volume of the tumor was then determined by V=πr^2 ×d, with the assumption that the tumor is a […], then r=(l+w)/4.
The effect of swainsonine on the growth of B16 melanoma solid tumors in vivo was investigated by pretreating the mice for 3 weeks and then injecting melanoma cells into the right shoulder area. Palpable tumors in the control group (0.0 μg Sw) were present on day 5 post tumor cell injection. These tumors were the size of a grain of rice and could not be accurately measured. FIG. 66 graphically presents tumor growth rate versus time. Tumors whose size could be reliably measured were present on day 7 in the controls (Table I). […] This was a delay of two day in both instances. The 0.1 μg Sw slowed growth of the melanoma tumor. The tumors in the 0.1 μg Sw group were 74% (p=0.03) smaller in size on day 9 compared to the controls and 68% (p=0.003) smaller on day 11.

canine glioma (CG) cells = test: proton NMR T-2* linewidth of canine glioma cells; assay type: cell-based; parameters: T-2* linewidth / T-2* linewidth after treatment withdrawal / T-2* linewidth after t-butanol extraction: unit not given here; conditions: for T-2* linewidth after treatment withdrawal: 4 weeks treatment then 1 week without, mean ± SD of 3; for T-2* linewidth after t-butanol extraction: treated CG cells
Method: The cells used for all these experiments are between passage 30 and passage 75.
The cell surface oligosaccharide display was assessed by methods developed previously. In brief, cells from a sub-culturing were aliquotted into 96 well trays at 5×10^5 cells per ml, 100 μL aliquots. […] Optimal lectin concentrations (5 μg/ml)were used to give 80 to 90% saturation of the available sites. Three carbohydrate ligands at 10 μg concentrations in triplicate or quadruplicate were then used to prepare competition curves for the lectin binding. The Bound over Free (B/F) ratio was calculated and the Ligand microprocessor program was used to determine the optimal fit of the data to a polynomial generated model. The Gibb's Free Energy (GFE) was calculated from the Scatchard data on the competition assay by the following equation: GFE=-RT 1n Kequit. The proton NMR linewidth measurements were conducted as described previously.

B16 melanoma cells [2] = test: effect of swainsonine on cytotoxic T-lymphocytes (51Cr release); assay type: in vivo, mouse
Method: The cytotoxicity assay used two targets: YAC-1, for natural killer cell targets and B16 melanoma cells, for cytolytic T-cell targets. The YAC-1 cells were labelled in GKN (ucose/KCl/NaCl) with ^51 Cr (NEN-DuPont, 400-1200 Ci/g activity) for 60 min. The B16's were ^51 Cr labelled in complete α-MEM media for 60 min. Both targets were washed twice through whole fetal calf serum to remove damaged and dead cells and then suspended in complete RPMI at a final concentration of 1×10^5 cells/ml. The spleen cells (effector cells) were plated in round bottom 96 well trays starting at 1×10^7 cells/ml (100 μl/well), using a halving dilution that provided splenocyte concentrations of 10^6, 5×10^5, 2.5×10^5, 1.25×10^5, 6.25×10^4 and 3.125×10^4, all done in triplicate. The target cells were added at 1×10^4 cell/100 μl/well; this gave an effector:target cell ratio ranging from 100:1 to 3:1. Controls included spontaneous ^51 Cr release and 100% lysis (10% triton treatment). The trays were centrifuged at 50×g for 5 min. and incubated in a CO2 incubator at 37° C. for 16 hours. The trays were spun again at 50×g for 5 minutes and 100 μl removed from each well for counting. A Packard gamma counter (United Technologies) was used for counting. Each sample was counted for 1 min. giving a 5% counting efficiency. The following equation was used to determine percent lysis.
The effector:target ratios were then plotted against percent lysis and a simple line equation was determined for each treatment group. The slope of this line was then used to determine the total effector kill efficiency.
The ^51 Cr cytotoxicity assay was also run with the B16 melanoma cells as the target and the splenocytes from the same mice as above as the effector cells. The baseline mice (no tumor/no Sw) and the control mice (tumor/no SW) had very similar line shapes and slopes. There were significant differences (p=0.03) between the presence and absence of tumor (see Table in FIG. 68).

lymphoid IL-2R / LAK = conditions: Bowlin et al. and further work; listed as Sw; cited from earlier work
α-mannosidase II = conditions: cited from earlier work

O[C@H]1[C@H]2[C@H](O)CCCN2C[C@H]1O [Swainsonine, swainsonine]
delay of onset of tumor growth (B16 melanoma cells [1]; 0.1 μg Sw): two | tumor size reduction versus control (B16 melanoma cells [1]; 0.1 μg Sw, day 9, p=0.03): 74% | tumor size reduction versus control (B16 melanoma cells [1]; 0.1 μg Sw, day 11, p=0.003): 68% | first day of palpable tumors (B16 melanoma cells [1]; 0.1 μg Sw, control day 5): 7 days | first day of measurable tumors (B16 melanoma cells [1]; 0.1 μg Sw, control day 7): 9 days | effect on growth (B16 melanoma cells [1]; 1.0 μg Sw): causes enhanced growth | inhibition of B16 growth (B16 melanoma cells [1]): no effect on delaying growth | inhibition of B16 growth (B16 melanoma cells [1]; listed as Sw): less effective at inhibiting the B16 growth | T-2* linewidth after treatment withdrawal (canine glioma (CG) cells; 213 k): 520 ± 26 | T-2* linewidth after treatment withdrawal (canine glioma (CG) cells; 223 k): 510 ± 18 | T-2* linewidth after treatment withdrawal (canine glioma (CG) cells; 233 k): 430 ± 15 | T-2* linewidth after treatment withdrawal (canine glioma (CG) cells; 243 k): 360 ± 10 | linewidth after withdrawal versus untreated control (canine glioma (CG) cells; 4 weeks treatment, 1 week withdrawal): still significantly different from control values | linewidth change (canine glioma (CG) cells; CG cells, biomodulator treatment versus control, listed as Sw): significant (P>0.01) decreases in linewidth; also recorded: higher level of linewidth reduction than the PWM treatment | T-2* linewidth (canine glioma (CG) cells; Four week of treatment, 213 k, mean ± SD of triplicate): 480 ± 35 | T-2* linewidth (canine glioma (CG) cells; Four week of treatment, 223 k, mean ± SD of triplicate): 330 ± 40 | T-2* linewidth (canine glioma (CG) cells; Four week of treatment, 233 k, mean ± SD of triplicate): 300 ± 8 | T-2* linewidth (canine glioma (CG) cells; Four week of treatment, 243 k, mean ± SD of triplicate): 230 ± 10 | T-2* linewidth (canine glioma (CG) cells; One week of treatment, 213 k): 580 | T-2* linewidth (canine glioma (CG) cells; One week of treatment, 223 k): 325 | T-2* linewidth (canine glioma (CG) cells; One week of treatment, 233 k): 285 | T-2* linewidth (canine glioma (CG) cells; One week of treatment, 243 k): 265 | T-2* linewidth after t-butanol extraction (canine glioma (CG) cells; 213 k, extracted control 367 ± 15): 316 ± 33 | T-2* linewidth after t-butanol extraction (canine glioma (CG) cells; 223 k, extracted control 337 ± 29): 271 ± 13 | T-2* linewidth after t-butanol extraction (canine glioma (CG) cells; 233 k, extracted control 299 ± 30): 243 ± 29 | T-2* linewidth after t-butanol extraction (canine glioma (CG) cells; 243 k, extracted control 229 ± 9): 194 ± 7 | CTL activity in words (B16 melanoma cells [2]; 0.1 μg Sw for 3 weeks, listed as Sw): greater than that of the control and of the 0.01 μg treated mice; also recorded: significant increase in the CTL activity | increase in line slope above baseline (B16 melanoma cells [2]; 0.1 μg Sw, day 7 tumor): 228% | increase in line slope over control mice with day 7 tumor (B16 melanoma cells [2]; 0.1 μg Sw, day 7 tumor): 127% | effect on IL-2R expression, IL-2 induced proliferation and LAK induction (lymphoid IL-2R / LAK): augmented lymphoid IL-2R expression and IL-2 induced proliferation following mitogenic stimulation; also recorded: augmented the LAK induction at normally sub-optimal stimulation doses | inhibition of α-mannosidase II / anticancer effects (α-mannosidase II): known to have anticancer effects possibly mediated through its inhibition of α-mannosidase II
